# Measurements as given in patent US12371454B2, “Cyclic peptide compound having Kras inhibitory action” (priority 2019, dated 2025).
# Starred links: 1 amine or outer side, 2 acyl side, 3 side chain; linkers in the order of their positions; H or OH if unused. Positions of bridges follow the written chain, without caps; N, C: chain ends. Non-standard residues stand in square brackets, D forms with d. Residues, ends and D or L forms follow the SMILES beside them. *: point of attachment. hPhe(3-Cl-4-CF3) = N[C@@H](CCc1ccc(C(F)(F)F)c(Cl)c1)C(=O)O; Pro(trans-4-Ph) = O=C(O)[C@@H]1C[C@@H](c2ccccc2)CN1; NMeNle(6-CHF2) = CN[C@@H](CCCCC(F)F)C(=O)O; NMedβ3hAla = C[C@H](CC(=O)[*:2])N(C)[*:1]; NMeAla(cPent) = CN[C@@H](CC1CCCC1)C(=O)O; NMeGly(cPent) = CN[C@H](C(=O)O)C1CCCC1; NMeGly(cBu) = CN[C@H](C(=O)O)C1CCC1; NMeCha = CN[C@@H](CC1CCCCC1)C(=O)O; NMeGly(cPr) = CN[C@H](C(=O)O)C1CC1; NMeAhp(2) = CCCCC[C@H](NC)C(=O)O; NMeChg = CN[C@H](C(=O)O)C1CCCCC1; NMeI = CC[C@H](C)[C@H](NC)C(=O)O; Gly(cBu) = N[C@H](C(=O)O)C1CCC1; NMeD = CN[C@@H](CC(=O)O)C(=O)O; NMeL = CN[C@@H](CC(C)C)C(=O)O; NMeV = CN[C@H](C(=O)O)C(C)C; Azetidin(1-yl) = C1CN(*)C1; NMeA = CN[C@@H](C)C(=O)O; Piperidide = C1CCN(*)CC1; Ac5c = NC1(C(=O)O)CCCC1; Aze = O=C(O)[C@@H]1CCN1; Sar = CNCC(=O)O
# Test system: Human pancreatic cancer cell line AsPC-1
# Experiment: Measurement of AsPC-1 cell growth inhibition (AsPC-1 CGI)
# Type: cell-based
# Settings: 96 h
# Description: Measurement of AsPC-1 Cell Growth Inhibition (AsPC-1 CGI)
# Test compounds were serially diluted with dimethyl sulfoxide, and 200 nL was then dispensed to a U-bottom 96-well plate using Labcyte Echo. Human pancreatic cancer cell line AsPC-1 was suspended in RPMI-1640 medium supplemented with 15% fetal bovine serum to prepare a cell suspension at 1000 cells/100 μL. The cell suspension was dispensed to a plate containing a test compound at 100 μL per well and incubated at 37° C. in a 5% carbon dioxide gas incubator. 96 hours later, 80 μL of CellTiter-Glo (Promega) was added to each well and […] was measured.
row,SMILES,IC50 [nM]
1,CC[C@H](C)[C@@H]1NC(=O)[C@H](CC(C)C)N(C)C(=O)C[C@@H](C(=O)N2CCCCC2)N(C)C(=O)[C@H](C(C)C)N(C)C(=O)C2(CCCC2)NC(=O)[C@@H]2CCCN2C(=O)[C@H](CCc2ccc(C(F)(F)F)c(Cl)c2)NC(=O)CN(C)C(=O)[C@H](CCCCC(F)F)N(C)C(=O)[C@@H]2CCN2C(=O)[C@H](C)N(C)C1=O [Compound 78] ([NMeL]I[NMeA][Aze][NMeNle(6-CHF2)][Sar][hPhe(3-Cl-4-CF3)]P[Ac5c][NMeV][NMeD]-Piperidide; lactam N-11),100 to 500
2,CC[C@H](C)[C@@H]1NC(=O)[C@H](CC(C)C)N(C)C(=O)C[C@@H](C)N(C)C(=O)[C@H]([C@@H](C)CC)N(C)C(=O)C2(CCCC2)NC(=O)[C@@H]2CCCN2C(=O)[C@H](CCc2ccc(C(F)(F)F)c(Cl)c2)NC(=O)CN(C)C(=O)[C@H](C2CCCC2)N(C)C(=O)[C@@H]2CCN2C(=O)[C@H](C)N(C)C1=O [Compound 79] (cyclo([Ac5c][NMeI][NMedβ3hAla][NMeL]I[NMeA][Aze][NMeGly(cPent)][Sar][hPhe(3-Cl-4-CF3)]P)),20 to 50
3,CC[C@H](C)[C@@H]1NC(=O)[C@H](CC(C)C)N(C)C(=O)C[C@@H](C)N(C)C(=O)[C@H](C(C)C)N(C)C(=O)C2(CCCC2)NC(=O)[C@@H]2CCCN2C(=O)[C@H](CCc2ccc(C(F)(F)F)c(Cl)c2)NC(=O)CN(C)C(=O)[C@H](CC2CCCC2)N(C)C(=O)CN(C)C(=O)CN(C)C1=O [Compound 88] (cyclo([Ac5c][NMeV][NMedβ3hAla][NMeL]I[Sar][Sar][NMeAla(cPent)][Sar][hPhe(3-Cl-4-CF3)]P)),50 to 100
4,CC[C@H](C)[C@@H]1NC(=O)[C@H](CC(C)C)N(C)C(=O)C[C@@H](C(=O)N2CCCCC2)N(C)C(=O)[C@H](C2CCCCC2)N(C)C(=O)C2(CCCC2)NC(=O)[C@@H]2C[C@@H](c3ccccc3)CN2C(=O)[C@H](CCc2ccc(C(F)(F)F)c(Cl)c2)NC(=O)CN(C)C(=O)[C@H](CC2CCCCC2)N(C)C(=O)CN(C)C(=O)CN(C)C1=O [Compound 90] ([NMeL]I[Sar][Sar][NMeCha][Sar][hPhe(3-Cl-4-CF3)][Pro(trans-4-Ph)][Ac5c][NMeChg][NMeD]-Piperidide; lactam N-11),100 to 500
5,CC[C@H](C)[C@@H]1NC(=O)[C@H](CCCCC(F)F)N(C)C(=O)C[C@@H](C(=O)N2CCCCC2)N(C)C(=O)[C@H](C(C)C)N(C)C(=O)C2(CCCC2)NC(=O)[C@@H]2CCCN2C(=O)[C@H](CCc2ccc(C(F)(F)F)c(Cl)c2)NC(=O)CN(C)C(=O)[C@H](CC2CCCCC2)N(C)C(=O)[C@@H]2CCN2C(=O)[C@H](C)N(C)C1=O [Compound 94] ([NMeNle(6-CHF2)]I[NMeA][Aze][NMeCha][Sar][hPhe(3-Cl-4-CF3)]P[Ac5c][NMeV][NMeD]-Piperidide; lactam N-11),100 to 500
6,CC[C@H](C)[C@@H]1NC(=O)[C@H](C2CC2)N(C)C(=O)C[C@@H](C(=O)N2CCCCC2)N(C)C(=O)[C@H](C(C)C)N(C)C(=O)C2(CCCC2)NC(=O)[C@@H]2CCCN2C(=O)[C@H](CCc2ccc(C(F)(F)F)c(Cl)c2)NC(=O)CN(C)C(=O)[C@H](CC2CCCCC2)N(C)C(=O)[C@@H]2CCN2C(=O)[C@H](C)N(C)C1=O [Compound 100] ([NMeGly(cPr)]I[NMeA][Aze][NMeCha][Sar][hPhe(3-Cl-4-CF3)]P[Ac5c][NMeV][NMeD]-Piperidide; lactam N-11),100 to 500
7,CC[C@H](C)[C@@H]1NC(=O)[C@H](CC(C)C)N(C)C(=O)C[C@@H](C(=O)N2CCCCC2)N(C)C(=O)[C@H](C2CCCC2)N(C)C(=O)C2(CCCC2)NC(=O)[C@@H]2CCCN2C(=O)[C@H](CCc2ccc(C(F)(F)F)c(Cl)c2)NC(=O)CN(C)C(=O)[C@H](C2CCC2)N(C)C(=O)[C@@H]2CCN2C(=O)[C@H](C)N(C)C1=O [Compound 127] ([NMeL]I[NMeA][Aze][NMeGly(cBu)][Sar][hPhe(3-Cl-4-CF3)]P[Ac5c][NMeGly(cPent)][NMeD]-Piperidide; lactam N-11),20 to 50
8,CCCCC[C@H]1C(=O)N[C@@H]([C@@H](C)CC)C(=O)N[C@@H](C)C(=O)N2CC[C@H]2C(=O)N(C)[C@@H](CC2CCCCC2)C(=O)N(C)CC(=O)N[C@@H](CCc2ccc(C(F)(F)F)c(Cl)c2)C(=O)N2CCC[C@H]2C(=O)NC2(CCCC2)C(=O)N(C)[C@@H](C2CCCC2)C(=O)N(C)[C@H](C(=O)N2CCC2)CC(=O)N1C [Compound 155] ([NMeAhp(2)]IA[Aze][NMeCha][Sar][hPhe(3-Cl-4-CF3)]P[Ac5c][NMeGly(cPent)][NMeD]-{Azetidin(1-yl)}; lactam N-11),20 to 50
9,CC(C)C[C@H]1C(=O)N[C@@H](C2CCC2)C(=O)N(C)[C@@H](C)C(=O)N2CC[C@H]2C(=O)N(C)[C@@H](CC2CCCCC2)C(=O)N(C)CC(=O)N[C@@H](CCc2ccc(C(F)(F)F)c(Cl)c2)C(=O)N2CCC[C@H]2C(=O)NC2(CCCC2)C(=O)N(C)[C@@H](C(C)C)C(=O)N(C)[C@H](C(=O)N2CCCCC2)CC(=O)N1C [Compound 157] ([NMeL][Gly(cBu)][NMeA][Aze][NMeCha][Sar][hPhe(3-Cl-4-CF3)]P[Ac5c][NMeV][NMeD]-Piperidide; lactam N-11),100 to 500
